Test results from patent US20230023009A1, “HETEROCYCLIC COMPOUNDS AND METHODS OF USE THEREOF” (SPARCBIO LLC, priority 2020, published 2023).
Read-outs that look alike come from different tables or passages of the source.

Assays:
[1] = system: MIA PaCa-2 subcutaneous xenograft tumors
Protocol: MIA PaCa-2 cells were injected subcutaneously (10×10^6 cells in 0.2 mL of PBS with Matrigel (1:1)) into the right flanks of 6-8-week-old female BALB/c nude mice and allowed to grow until the average tumor size reached 150-200 mm^3. The mice were then stratified into treatment groups of 8 animals and treatment initiated on Day 0. Test compound or vehicle (1% Tween 80, 2% HPMC, and 97% water) was administered orally, once daily, for 14 days with an observational phase to monitor tumor growth post-treatment. Tumor size was measured twice weekly in two dimensions using a caliper, and the volume was expressed in mm^3 using the formula: V=(a×b^2/2) where a and b are the long and short diameters of the tumor, respectively. Tumor Growth Inhibition (TGI) was calculated for each group using the formula: TGI %=(1−Ti/Vi)×100, where Ti is the mean tumor volume of the treatment group on the measurement day, and Vi is the mean tumor volume of the control group on the measurement day. Animal body weight was monitored regularly as an indicator of toxicity. […] Data points represent the group mean, and error bars represent the standard error of the mean (SEM).

NCI-H358 cells = assay: 3D cell proliferation assay (Cell Titer-Glo 3D, 7 days); assay type: cell-based; settings: Homo sapiens, NCI-H358, 168 h, NCI-H358 3D, ultra-low attachment plate
Protocol: NCI-H358 cells (ATCC® CRL-5807™) were plated in a 384-well Black/Clear Round Bottom Ultra-Low Attachment Microplate (Corning) in medium (RPMI-1640+10% FBS) at a density of 1000 cells in 50 μL per well, then incubated overnight at 37° C. and 5% CO2. Cells were treated with test compounds at 9 concentrations within a specified concentration range (e.g., 0.5 nM-10 μM) for generation of dose response curves. Test compounds were prepared by 1:3 serial dilution in DMSO from a specified starting concentration (e.g., 20 μM, 2 μM or 0.2 μM) and then added to wells of the assay plate in a total volume of 150 nL DMSO. The cells were further incubated at 37° C. and 5% CO2 for 7 days. Cell viability was assessed by adding 40 μL of Cell Titer-Glo® 3D reagent (Cat. No.: G9683, Promega) to each well and reading luminescence after mixing and incubation of the samples. The IC50 value of each test compound was calculated with XLFit curve fitting software.

NCI-H2122 = assay: Cell proliferation assay panel (Cell Titer-Glo, 72 hr); assay type: cell-based; settings: Homo sapiens
Protocol: (§1) Potency of compounds was determined in cell proliferation assays in a panel of cancer cell lines. Cells were seeded in 384-well plates (Corning, Cat. #3765) at specified densities in 40 μL of culture medium and incubated overnight at 37° C. in a 5% CO2 incubator (culture conditions). With a robotic dispenser, serially diluted test compounds were added in a volume of 20 nL DMSO to wells in the culture plate to achieve the final desired concentrations of test compounds, and the cells were further incubated in culture conditions for 72 hr. The assay was terminated by addition of 25 μL of Cell Titer-Glo reagent (Promega, Madison, Wis.) to each well. Contents were mixed, the plate was incubated for 10 min at room temperature and luminescence was measured. The IC50 value of each test compound was calculated with XLFit curve fitting software. Results are shown in Table 4. ‘+++’ indicates IC50 values≤300 nM, ‘++’ indicates IC50 values between 300 nM-3 μM, and ‘+’ indicates IC50 values≥3 μM.

NCI-H358 = assay: as above; assay type: cell-based; settings: Homo sapiens
Protocol: as §1

KYSE-410 = assay: as above; assay type: cell-based; settings: Homo sapiens
Protocol: as §1

NCI-H2030 = assay: as above; assay type: cell-based; settings: Homo sapiens
Protocol: as §1

MIA PaCa-2 = assay: as above; assay type: cell-based; settings: Homo sapiens, MIA PaCa-2, 72 h
Protocol: as §1

SW1573 = assay: as above; assay type: cell-based; settings: Homo sapiens
Protocol: as §1

A549 = assay: as above; assay type: cell-based; settings: Homo sapiens
Protocol: as §1

NCI-H1373 = assay: as above; assay type: cell-based; settings: Homo sapiens
Protocol: as §1

[2] = system: Phosphorylation of ERK in NCI-H358 cells; assay: pERK assay (Method II, homogeneous TR-FRET); assay type: cell-based; settings: Homo sapiens, 4 hrs compound treatment
Protocol: Method II. Phosphorylation of ERK was assessed by a homogeneous TR-FRET assay (Advanced phospho-ERK (Thr202/Tyr204) cellular kit; Cat. #64AERPEH, Cisbio). In brief, NCI-H358 cells were seeded in a 384-well culture plate at a density of 6000 cells in 40 μL medium/well and grown overnight at 37° C. and 5% CO2. Each test compound was dosed in duplicate in a 10-dose 3-fold titration starting at 10 μM or 2 μM. The culture plate was then incubated for 4 hrs in the incubator. At the end of the compound treatment, the medium was removed, 35 μL of lysis buffer was added to each well, and the plate was agitated on a plate shaker for 40 mins at 4° C. An antibody cocktail of phospho-ERK1/2 Eu Cryptate antibody and Phospho-ERK1/2 d2 antibody was prepared by separately diluting the antibodies 20-fold with detection buffer and then mixing them together. 3.4 μL of antibody cocktail was dispensed to each well of an empty 384-well white ProxiPlus assay plate (Perkin Elmer), and the plate briefly centrifuged. 13.6 μL of cell lysate was then added to the antibody-containing wells, and the plate was briefly centrifuged and then incubated 2 hrs at room temperature. The plate was read on a fluorescence plate reader (Envision2104, Perkin Elmer), with an excitation wavelength of 337 nm and emission wavelengths of 615 nm and 665 nm. The IC50 value of each test compound was calculated with XLFit curve fitting software. Results are shown in Table 6. ‘+++’ indicates IC50 values≤300 nM, ‘++’ indicates IC50 values between 300 nM-3 μM, and ‘+’ indicates IC50 values≥3 μM.

[3] = system: NCI-H358 subcutaneous xenograft tumors; assay: NCI-H358 mouse xenograft model
Protocol: NCI-H358 cells were injected subcutaneously (5×10^6 cells in 0.1 mL of PBS) into the right flanks of 6-8-week-old female BALB/c nude mice and allowed to grow until the average tumor size reached 150-200 mm^3. The mice were then stratified into treatment groups of 4-8 animals and treatment initiated on Day 0. Test compound or vehicle (1% Tween 80, 2% HPMC, and 97% water) was administered orally, once daily, for 21 days. Tumor size was measured twice weekly in two dimensions using a caliper, and the volume was expressed in mm^3 using the formula: V=(a×b^2/2) where a and b are the long and short diameters of the tumor, respectively. Tumor Growth Inhibition (TGI) was calculated for each group using the formula: TGI %=(1−Ti/Vi)×100, where Ti is the mean tumor volume of the treatment group on the measurement day, and Vi is the mean tumor volume of the control group on the measurement day. Animal body weight was monitored regularly as an indicator of toxicity. […] Data points represent the group mean, and error bars represent the standard error of the mean (SEM).

C=C(F)C(=O)N1CCN(c2nc(OC[C@@H]3CCCN3C)nc3c2CO[C@@H](c2cccc4cccc(Cl)c24)C3)C[C@@H]1CC#N (single isomer, unassigned) [43 (Isomer B)]
TGI ([1]; 10 mg/kg orally once daily, Day 14 after treatment start): 9.0%
TGI ([1]; 30 mg/kg orally once daily, Day 14 after treatment start (day not restated for comparator)): 75.5%
TGI ([1]; 100 mg/kg orally once daily, Day 14 after treatment start): 94.6%
tolerability (from body weight) ([1]; orally once daily for 14 days): well-tolerated
IC50 (NCI-H358 cells): ≤ 0.1 µM
IC50 (NCI-H2122): 0.3 to 3 µM
IC50 (NCI-H358): ≤ 0.3 µM
IC50 (KYSE-410): ≥ 3 µM
IC50 (NCI-H2030): 0.3 to 3 µM
IC50 (MIA PaCa-2): ≤ 0.3 µM
IC50 (SW1573): ≥ 3 µM
IC50 (A549): ≥ 3 µM
IC50 (NCI-H1373): 0.3 to 3 µM
IC50 [2]: ≤ 0.3 µM
TGI ([3]; 10 mg/kg orally once daily, Day 20 after treatment start): 15.1%
TGI ([3]; 30 mg/kg orally once daily, Day 20 after treatment start (day not restated for comparators)): 43.6%
TGI ([3]; 100 mg/kg orally once daily, Day 20 after treatment start): 94.6%
tolerability (from body weight) ([3]; 10, 30 and 100 mg/kg orally once daily for 21 days): well-tolerated
weight loss ([3]; none of the mice greater than this, 10, 30 and 100 mg/kg once daily): ≤ 10%
